# According to patent US10183011B2, “Anti-depression compounds” (Board of Regents of the University of Texas System, priority 2009, dated 2019):
# Entries after “also recorded” stand apart in the source; their conditions may differ.
# Assays:
# [1] = test system: newborn hippocampal neurons; experiment: 30 day BrdU pulse-chase survival assay of newborn hippocampal neurons, dose response; type: in vivo, mouse (C57 Bl/6); details: for increase in survival of newborn neurons: 5 mg/kg/day i.p. for 30 days; for neuroprotective efficacy (increase in survival of newborn neurons): 10 mg/kg/day i.p. for 30 days; for ceiling of efficacy (CoE), increase in survival: 20 or 40 mg/kg/day i.p. for 30 days
# Experimental: FIG. 28. Neuroprotective efficacy of P7C3, P7C3A20 and Dimebon for newborn neurons in the adult hippocampus. Test compounds were evaluated by dose response assay for their ability to block normal apoptotic cell death of newborn neural precursor cells in the adult dentate gyrus. […] P7C3 is intermediate in both measures. 6 animals were tested per group. Dosing is expressed as total mg/day, and compounds were administered intraperitoneally in divided doses twice daily. Data are expressed as mean±SEM. Values for P7C3 and P7C3A20 were compared to those of vehicle (VEH), and values for Dimebon were compared to those of saline (SAL).
# In order to more carefully compare the neuroprotective efficacy of these compounds in abetting hippocampal neurogenesis, we conducted dose-response studies in a 30 day BrdU pulse-chase survival assay (FIG. 28). Briefly, newborn cells were labeled with a single intraperitoneal (i.p.) injection of BrdU (150 mg/kg), followed by daily treatment with the three test compounds beginning the following day. After 30 days of compound administration, mice were transcardially perfused with 4% paraformaldehyde, brains were dissected, and immunohistochemical detection of BrdU followed by standard microscopic imaging and normalization for dentate gyrus volume was used to quantify the number of surviving cells.
# Because both social activity and voluntary exercise enhance hippocampal neurogenesis, mice were individually housed without access to running wheels throughout the entire procedure, beginning one week prior to bromodeoxyuridine (BrdU, Sigma-Aldrich) labeling of newborn cells. Throughout the study, mice had ad libitum access to food and water. BrdU was injected intraperitoneally at 150 mg/kg i.p., and 24 hours later administration of test compounds or vehicle was initiated. P7C3 and P7C3A20 were dissolved in 5% dextrose (pH 7.0) with 2.5% DMSO and 10% Cremaphor EL (Sigma, C5135). Dimebon was dissolved in normal saline. Compounds were compared to their respective controls, and were tested at 2.5, 5, 10 and 20 mg/kg twice daily (i.p.) for 30 days. The injection site was alternated between right and left sides. Each group consisted of six 12-week-old adult male C57 Bl/6 mice. Animals were monitored daily for general health and weight loss. Cage changes were performed per routine scheduling. After 30 days of compound administration, mice were sacrificed by transcardial perfusion with 4% paraformaldehyde at pH 7.4, and their brains were processed for immunohistochemical detection of incorporated BrdU in the dentate gyrus. Dissected brains were immersed in 4% paraformaldehyde overnight at 4 degrees Celsius, then cryoprotected in sucrose before being sectioned with a Leica SM2000R sliding microtome coronally into […] thick free-floating sections. Unmasking of BrdU antigen was achieved through incubating tissue sections for two hours in 50% formamide/2×SSC at 65 degrees Celsius, followed by five minute wash in 2×SSC and subsequent incubation for thirty minutes in 2M HCl at 37 degrees Celsius. Sections were processed for immunohistochemical staining with mouse monoclonal anti-BrdU (1:100, Roche). Diaminobenzidine was used as a chromagen, and tissue was counter-stained with hematoxylin to aid in visualization of the neuroanatomy. Images were analyzed with a Nikon Eclipse 90i motorized research microscope with Plan Apo lenses coupled with Metamorph Image Acquisition software (Nikon). Quantification of all staining was done blind to treatment group. The number of BrdU+ cells in the entire dentate gyrus was quantified by counting BrdU+ cells within the dentate gyrus in every fifth section throughout the entire hippocampus and then normalizing for dentate gyrus volume.
# [2] = test system: C. elegans; experiment: MPP+-induced mobility deficits in C. elegans; type: in vivo; details: for locomotion (distance traveled by the head in 10 seconds divided by body length): 10 μM with MPP+, VEH 16.2±0.49, MPP+ alone 7.2±0.68; for mobility protected, relative to normal: 10 μM, 5 mM MPP+ for 32 hours
# Experimental: FIG. 32. Protective efficacy of P7C3 and P7C3A20 for MPP^+-induced mobility deficits in C. elegans. The top panels show worms with the head identified by a green dot. […] Tracking is visualized as starting with blue color and progressing to white by the completion of 10 seconds. The green dot was used to determine locomotion, defined as the distance traveled by the head of the worm in 10 seconds divided by body length. Scale bars represent 70 μM. […] When worms were treated with MPP^+, locomotion was reduced more than 50% (7.2±0.68; n=31, p<0.0001). […] P7C3A20 protected mobility to almost 80% of normal (12.8±0.81; n=34, *p<0.01), and 10 μM P7C3 protected almost 60% (m.i. of 9.6±0.72; n=28, *p<0.05). […] (7.7±1.0; n=30). Experiments were performed in triplicate and data are expressed as mean±SEM.
# As a behavioral measure of toxicity, worm mobility was assessed 32 hours after MPP^+-exposure. To quantify worm locomotion, video representations were recorded for 10 seconds at 4× magnification using a Nikon Eclipse 80i microscope. Each video segment consisted of 160 frames, and the head of each worm (10-20 worms per group, repeated in triplicate) was manually tracked in each frame using Imera software. The body length of each worm was also measured by Imera software. The ratio of distance traveled to body length was used to determine the movement index, defined as locomotion, as previously established (Wang J., et al. (2009) An ALS-linked mutant SOD1 produces a locomotor defect associated with aggregation and synaptic dysfunction when expressed in neurons of Caenorhabditis elegans. PLoS Genetics e10003350). […] Co-incubation of MPP^+-exposed worms with 10 μM P7C3A20 conferred 80% preservation of locomotion, while 10 μM P7C3 protected to about 60% of normal levels.
# A video-based assay was used to assess the swim speed, distance traveled and length of worms. After exposure to MPP^+ for 32 hrs, worms were washed, resuspended in M9 buffer (500 ul) and transferred to microscope slides. A 10 second movie was recorded at 4× magnification using a Nikon Eclipse 80i microscope. Each movie consisted of 160 frames and the distance traveled by the head of each worm was manually tracked in each frame using Imera software. This software was also used to measure the length of the worm body. The ratio of movement distance to body length was used as a movement index, and defined as locomotion per standard protocols.
Structure (SMILES),increase in survival of newborn neurons [1],neuroprotective efficacy (increase in survival of newborn neurons) [1],"ceiling of efficacy (CoE), increase in survival [1]",locomotion (distance traveled by the head in 10 seconds divided by body length) [2],"mobility protected, relative to normal [2]"
OC(CNc1ccccc1)Cn1c2ccc(Br)cc2c2cc(Br)ccc21 (centres unmarked) [Example P7C3],neither P7C3 nor Dimebon exhibited any effect,65%,≈ 130%,9.6±0.72,–
"COc1cccc(NCC(F)Cn2c3ccc(Br)cc3c3cc(Br)ccc32)c1 (centres unmarked) [Example P7C3A20, N-(3-(3,6-dibromo-9H-carbazol-9-yl)-2-fluoropropyl)-3-methoxyaniline]",~100%,about 175%,≈ 230%,12.8±0.81,80%
"Cc1ccc2c(c1)c1c(n2CCc2ccc(C)nc2)CCN(C)C1 [Dimebon, 2,3,4,5-Tetrahydro-2,8-dimethyl-5-(2-(6-methyl-3-pyridyl)ethyl)-1H-pyrido(4,3-b)indole, reference compound]",neither P7C3 nor Dimebon exhibited any effect,15%,≈ 30%,7.7±1.0,offered no protective efficacy; also recorded: did not offer any protection
